Test results reported in patent US8445510B2, “Fused bicyclic kinase inhibitors” (OSI Pharmaceuticals, LLC, priority 2011, dated 2013).

How the values were obtained:
Type in all cases: cell-based
MKN45 cells = assay: MKN45 cell proliferation assay (CellTiter-Glo); settings: Homo sapiens, MKN-45, 72 h; MKN45 cell line; 3 days incubation; at least duplicate experiments; read-out: Prolif. IC50
Procedure: The effect of inhibitors on the proliferation of MKN45 cells was determined using the following protocol. MKN45 cells were plated in Corning 3917 96-well white tissue culture treated plates in growth medium (RPMI, 10% FCS) at a density of 5000 cells/well in a total volume of 135 μL and incubated at 37° C., 5% CO2, 95% humidity overnight. The following day, one-tenth volume of a 10× concentration of compounds was added to the wells in an 8-point dilution series. The dilution series was composed of an initial 1:5 dilution of a 10 mM stock of compound in DMSO, followed by serial 1:4 dilutions in DMSO, then a 1:20 dilution in growth medium prior to the 1:10 dilution into the cell plate. […] The typical dilution range is 10 μM to 0.6 nM. Once the compound was added to the cells, plates were incubated for 3 days at 37° C., 5% CO2 at 95% humidity. On the third day, after allowing all cells and reagents to come to room temperature, 25 μL of CellTiter-Glo reagent (Promega #G7573) was added to the wells. Plates were shaken on a platform for 10 minutes prior to reading luminescence for 0.1 seconds. The signal of the control wells was taken as 100% growth and growth inhibition was expressed as percent of control. IC50 values were determined from the percent of control data using a standard four-parameter model.
(§1) The IC50 values of exemplary compounds of the present invention determined in a cell proliferation assay using the MKN45 cell line according to the procedures described herein in at least duplicate experiments are abbreviated as follows and are shown in Table 2: A, IC50≦0.05 μM; B, 0.05 μM<IC50≦0.2 μM; C, 0.2 μM<IC50≦1 μM; D, IC50>1 μM; ND, not determined. The Example # of Table 2 corresponds to the compound example number as illustrated in the Examples section.
Treatment of this cell line with a selective c-MET inhibitor led to induction of apoptosis and inhibition of proliferation, whereas non-MET-amplified cell lines were not affected [Smolen et al., Proc. Natl. Acad. Sci. USA, 103(7):2316-2321 (2006)]. This cell line is thus “driven” by c-MET, and antiproliferative effects correlate very well with the inhibition of c-MET phosphorylation so that the cell proliferation IC50, values can be used as surrogate for the c-MET cell mechanistic IC50, values. Under the assay conditions described herein, the IC50 values correlate nearly 1:1.

Karpas-299 cells = assay: Karpas-299 cell proliferation assay (CellTiter-Glo); settings: Homo sapiens, 72 h; Karpas-299 cell line (NPM-ALK); 3 days incubation; at least duplicate experiments; read-out: Prolif. IC50
Procedure: The effect of inhibitors on the proliferation of Karpas-299 cells (DSMZ no. ACC 31) was determined using the following protocol. Karpas-299 cells were plated in 96-well white tissue culture treated plates (Corning 3917) in growth medium (RPMI, 10% FCS) at a density of 5000 cells/well in a total volume of 135 μL and incubated at 37° C., 5% CO2, 95% humidity overnight. The following day, one-tenth volume of a 10× concentration of compounds was added to the wells in an 8-point dilution series. Compounds were serially diluted (1:4) in DMSO from a 10 mM stock solution prior to dilution in growth media to the 10× working concentrations (5% DMSO). Final concentration of DMSO in compound-treated wells was 0.5%. Control wells containing growth media or growth media/0.5% DMSO were included in all test plates. […] Once the compounds were added to the cells, plates were incubated for 3 days at 37° C., 5% CO2 at 95% humidity. After 72 hours, all cells and reagents were equilibrated to room temperature and 15 μL of CellTiter-Glo reagent (Promega # G7573) was added to each well. Plates were shaken on a platform for 10 minutes at room temperature prior to reading luminescence. The value of the signal of the control wells was set as 100% growth and growth inhibition was expressed as percent of control. IC50 values were determined from the percent of control data using a standard four-parameter curve fit equation.
as §1, with “the Karpas-299” for “the MKN45”, “Table 5:” for “Table 2:”, “Table 5” for “Table 2”
The Karpas-299 cell line has a t(2; 5) chromosomal translocation and expresses the NPM-ALK fusion protein, resulting in constitutively active ALK. […] Ther. 6(12):3314-22 (2007)]. With this “ALK-driven” cell line, the cell proliferation IC50 values can thus be used as surrogate for the p-ALK cell mechanistic IC50 values.

RON = target: T1, RON (Homo sapiens, UniProt Q04912); assay: sfRON cell mechanistic assay (HeLa), phosphorylated RON ELISA; settings: HeLa cells transfected with sfRON; inhibition of phosphorylated RON; four hours incubation; at least duplicate experiments; read-out: sfRON mech IC50
T1 sequence (Q04912 913-1400): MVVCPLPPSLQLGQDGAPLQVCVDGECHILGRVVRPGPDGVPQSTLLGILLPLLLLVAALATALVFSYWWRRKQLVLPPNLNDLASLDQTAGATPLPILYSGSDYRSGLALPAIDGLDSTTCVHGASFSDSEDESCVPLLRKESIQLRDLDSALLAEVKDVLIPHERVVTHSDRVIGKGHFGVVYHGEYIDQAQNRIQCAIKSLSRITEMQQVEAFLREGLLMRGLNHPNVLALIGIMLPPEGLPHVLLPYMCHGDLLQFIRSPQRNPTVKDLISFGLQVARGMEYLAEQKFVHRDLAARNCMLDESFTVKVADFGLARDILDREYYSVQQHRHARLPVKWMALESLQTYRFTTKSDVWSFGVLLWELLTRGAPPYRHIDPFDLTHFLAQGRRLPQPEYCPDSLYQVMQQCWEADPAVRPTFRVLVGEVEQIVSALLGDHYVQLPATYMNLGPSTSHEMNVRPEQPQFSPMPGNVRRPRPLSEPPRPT
Procedure: The cellular activity of the compounds of the present invention against RON may be determined by the following procedure. HeLa cells were plated in Falcon 3072 96-well plates in growth media (DMEM, 10% FBS, 1% L-glutamine) at a density of 10000 cells/well and incubated at 37° C., 5% CO2 overnight. The following day, cells were transfected with 0.2 μg sfRON-pcDNA plasmid DNA with 0.5 μL Lipofectamine-2000 per well in the presence of 50 μL OPTI-MEM, incubated at 37° C., 5% CO2 overnight. Costar 3915 96-well assay plates were coated with rabbit Anti-RON antibody at 2.0 μg/mL, sealed, and incubated overnight at 4° C. On the third day, coated plates were washed with PBS and blocked with 3% BSA. For the sfRON transfected cells, one-tenth volume of a 10× concentration of compounds was added to the wells in a 6-point dilution series. The dilution series was composed of an initial 1:5 dilution of a 10 mM DMSO stock solution of compound in DMSO, followed by a 1:10 dilution in growth media, for a final DMSO concentration on cells of 0.5%. Control wells were treated with 0.5% DMSO. The typical range of dilution was 10 μM to 3 nM. Once compound was added to the cells, plates were incubated for four hours at 37° C., 5% CO2. Plates were then washed in PBS, and lysed in triton-based lysis buffer. Lysates were transferred to the blocked capture plates. The phosphorylated RON levels were measured by incubating with a Goat polyclonal antibody against phosphorylated RON ([pYpY1238/1239]) followed by an anti-Goat antibody conjugated to HRP. Signal was measured on a Wallac Victor plate reader with luminance. The DMSO signal of the control wells was defined as 100% and the percent of inhibition of phosphorylated RON was expressed as percent of control. IC50 values were determined from the percent of control data using a standard four-parameter model.
The IC50 values of exemplary compounds of the present invention determined in a sfRON cell mechanistic assay using the HeLa cell line according to the procedures described herein in at least duplicate experiments are abbreviated as follows and are shown in Table 3: A, IC50≦0.2 μM; B, 0.2 μM<IC50≦1.0 μM; C, IC50>1 μM; ND, not determined. The Example # of Table 3 corresponds to the compound example number as illustrated in the Examples section.

SMILES | IC50 (MKN45 cells) [nM] | IC50 (Karpas-299 cells) [nM] | IC50 (RON) [nM]
[2H]c1[nH]c2ncc(-c3cnn([C@H]4CC[C@H](O)CC4)c3C)cc2c1[C@@H](C)c1c(OC(F)F)ccc(F)c1Cl [Example 95, trans-4-{-4-[3-{(1R)-1-[2-Chloro-6-(difluoromethoxy)-3-fluorophenyl]-ethyl}(2-^2H)-1H-pyrrolo[2,3-b]pyridin-5-yl]-5-methyl-1H-pyrazol-1-yl}cyclohexanol] | 200 to 1000 | 200 to 1000 | –
Cc1c(-c2cnc3[nH]cc([C@H](C)c4c(OC(F)F)ccc(F)c4Cl)c3c2)cnn1[C@H]1CC[C@@H](N(C)CC(=O)O)CC1 [Example 90, N-{cis-4-[4-(3-{(1S)-1-[2-Chloro-6-(difluoromethoxy)-3-fluorophenyl]ethyl}-1H-pyrrolo[2,3-b]pyridin-5-yl)-5-methyl-1H-pyrazol-1-yl]cyclohexyl}-N-methylglycine] | 50 to 200 | 50 to 200 | > 1000
COc1ccc(F)c(Cl)c1[C@@H](C)c1c[nH]c2ncc(-c3cn(C[C@H](O)CO)nc3C(F)(F)F)cc12 [Example 37, (2S)-3-[4-{3-[(1S)-1-(2-Chloro-3-fluoro-6-methoxyphenyl)ethyl]-1H-pyrrolo[2,3-b]pyridin-5-yl}-3-(trifluoromethyl)-1H-pyrazol-1-yl]propane-1,2-diol] | 200 to 1000 | 200 to 1000 | –
COc1ccc(F)c(Cl)c1[C@@H](C)c1c[nH]c2ncc(-c3c(C)nn([C@H]4CC[C@H](C(=O)O)CC4)c3C)cc12 [Example 25, trans-4-(4-{3-[(1S)-1-(2-Chloro-3-fluoro-6-methoxyphenyl)ethyl]-1H-pyrrolo[2,3-b]pyridin-5-yl}-3,5-dimethyl-1H-pyrazol-1-yl)cyclohexanecarboxylic acid] | – | ≤ 50 | –
[2H]c1[nH]c2ncc(-c3cnn([C@H]4CC[C@H](O)CC4)c3C)cc2c1[C@H](C)c1c(OC(F)F)ccc(F)c1Cl [Example 94, trans-4-{-4-[3-{(1S)-1-[2-Chloro-6-(difluoromethoxy)-3-fluorophenyl]ethyl}(2-^2H)-1H-pyrrolo[2,3-b]pyridin-5-yl]-5-methyl-1H-pyrazol-1-yl}cyclohexanol] | ≤ 50 | ≤ 50 | –
COc1ccc(F)c(Cl)c1[C@@H](C)c1c[nH]c2ncc(-c3cnn(C[C@H](O)CO)c3C(F)(F)F)cc12 [Example 36, (2S)-3-[4-{3-[(1S)-1-(2-Chloro-3-fluoro-6-methoxyphenyl)ethyl]-1H-pyrrolo[2,3-b]pyridin-5-yl}-5-(trifluoromethyl)-1H-pyrazol-1-yl]propane-1,2-diol] | 50 to 200 | 200 to 1000 | –
CCOC(=O)[C@H]1CC[C@H](n2nc(C)c(-c3cnc4[nH]cc([C@H](C)c5c(OC)ccc(F)c5Cl)c4c3)c2C)CC1 [Example 26, Ethyl trans-4-(4-{3-[(1S)-1-(2-chloro-3-fluoro-6-methoxyphenyl)ethyl]-1H-pyrrolo[2,3-b]pyridin-5-yl}-3,5-dimethyl-1H-pyrazol-1-yl)cyclohexanecarboxylate] | – | ≤ 50 | –

Results, then the compound that gave them:

IC50 (MKN45 cells) [nM] | IC50 (Karpas-299 cells) [nM] | IC50 (RON) [nM] | SMILES
> 1000 | – | – | Cc1c(-c2cnc3[nH]cc([C@@H](C)c4c(OC(F)F)ccc(F)c4Cl)c3c2)cnn1[C@H]1CC[C@H](O)CC1 [Example 98, trans-4-[4-(3-{(1R)-1-[2-Chloro-6-(difluoromethoxy)-3-fluorophenyl]ethyl}-1H-pyrrolo[2,3-b]pyridin-5-yl)-5-methyl-1H-pyrazol-1-yl]cyclohexanol]
≤ 50 | ≤ 50 | ≤ 200 | [2H]C([2H])([2H])[C@H](c1c(OC(F)F)ccc(F)c1Cl)c1c[nH]c2ncc(-c3cnn([C@H]4CC[C@H](O)CC4)c3C)cc12 [Example 113, trans-4-(4-{3-[(1S)-1-[2-Chloro-6-(difluoromethoxy)-3-fluorophenyl](2,2,2-^2H3)ethyl]-1H-pyrrolo[2,3-b]pyridin-5-yl}-5-methyl-1H-pyrazol-1-yl)cyclohexanol]
> 1000 | > 1000 | – | Cc1c(-c2cnc3[nH]cc([C@@H](CF)c4c(Cl)ccc(F)c4Cl)c3c2)cnn1[C@H]1CC[C@H](O)CC1 [Example 117, trans-4-(4-{3-[(1R)-1-(2,6-dichloro-3-fluorophenyl)-2-fluoroethyl]-1H-pyrrolo[2,3-b]pyridin-5-yl}-5-methyl-1H-pyrazol-1-yl)cyclohexanol]
